Consider one compound from patent US11297805B2, “Miticidal beehive entranceway” (priority 2019, dated 2022).

A short description of series [1]: Simulated bee-flight (drone propeller) thymol decay and model of thymol dosage on a worker bee. Further details: species or system honey bee. The note with it: 1 mg thymol/Hydromed behind drone propellers, 6 hours per day, exponential decay.
Description: As such, a single worker bee would pass through the DF-TE 40×, receiving ˜0.7 μg per passage, or 28 μg per day.
For the next series, the system named is Varroa mites. The note with it: concentrated enough to kill the mites but not to harm the bees; cited from earlier work.

Consider `Cc1ccc(C(C)C)c(O)c1` [thymol], for which the “time until a single daily dose of thymol is exhausted on the bee abdomen” value in series [1] is reported as at most 4 days. Besides, in the series with Varroa mites, the “therapeutic window of thymol vapor” value is 5-15 microgram/liter of hive air.
